According to US10611750B2, “Tetrahydroquinoline compositions as bet bromodomain inhibitors” (FORMA Therapeutics, Inc., priority 2013, dated 2020):
pIC50: −log10 of the molar value.

Experiments:
[1] = target: T1, BRD4 Bromodomain 2 (BRD4 BD2) (Homo sapiens, UniProt O60885); assay: AlphaScreen binding assay, BRD4 BD2; conditions: His-tagged BRD4 BD2 100 nM, biotinylated H4 (1-21) K5/8/12/16 tetra-acetylated peptide 100 nM, compounds listed under IC50 range headings
T1 construct: 333-460 were cloned, expressed, and purified to homogeneity
Summary of the method: (§1)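 An AlphaScreen competition format was used with His-BRD4 BD1 or BD2 and biotin-H4 K5/8/12/16-acetyl peptide, each at matched final levels of 50 nM (BD1) or 100 nM (BD2). Incubation in HEPES/NaCl buffer with 0.1% BSA and 0.01% Triton X-100 ran ≥1 h before IC50 determination.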

[2] = system: acute myelocytic leukemia (AML) cell line MV4-11; assay: Oncology cell growth assay (3-day proliferation, CellTiter-Glo); type: cell-based; conditions: Homo sapiens, MV4-11, 72 h, MV4-11 cells, 3000 cells/well, compounds listed under IC50 range headings, read-out: MV411 IC50 (gIC50, inhibition of proliferation)
Summary of the method: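 A 3-day proliferation test used MV4-11 cells seeded at 3000 per well with eight compound concentrations (10 μM top, 3-fold dilution) at 37° C in 5% CO2. CellTiter-Glo luminescence defined viable cell signal. A four-parameter logistic curve against DMSO and background wells gave the gIC50.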

[3] = target: T2, BRD4 Bromodomain 1 (BRD4 BD1) (Homo sapiens, UniProt O60885); assay: AlphaScreen binding assay, BRD4 BD1; conditions: His-tagged BRD4 BD1 50 nM, biotinylated H4 (1-21) K5/8/12/16 tetra-acetylated peptide 50 nM, compounds listed under IC50 range headings
T2 construct: 44-168 and BRD4 BD2
Summary of the method: as §1

SMILES	pIC50 [1]	pIC50 [2]	pIC50 [3]
CC(=O)N1c2ccc(-c3cnn(C4CC4)c3)c(OC3CC3)c2CC[C@@H]1C [I-113, (S)-1-(5-cyclopropoxy-6-(1-cyclopropyl-1H-pyrazol-4-yl)-2-methyl-3,4-dihydroquinolin-1(2H)-yl)ethanone]	6.30 to 7.30	> 6.30	6.00 to 7.00
CCCOc1c(-c2ccc(S(C)(=O)=O)cn2)ccc2c1CC[C@H](C)N2C(C)=O [I-114, (S)-1-(2-methyl-6-(5-(methylsulfonyl)pyridin-2-yl)-5-propoxy-3,4-dihydroquinolin-1(2H)-yl)ethanone]	6.30 to 7.30	< 6.00	5.00 to 6.00
CCCOc1c(-c2ccc(NS(C)(=O)=O)cn2)ccc2c1CC[C@H](C)N2C(C)=O [I-115, (S)—N-(6-(1-acetyl-2-methyl-5-propoxy-1,2,3,4-tetrahydroquinolin-6-yl)pyridin-3-yl)methanesulfonamide]	6.30 to 7.30	< 6.00	5.00 to 6.00
CC(=O)N1c2ccc(-c3ccc(S(C)(=O)=O)cn3)c(OCC(=O)N(C)C)c2CC[C@@H]1C [I-116, (S)-2-(1-acetyl-2-methyl-6-(5-(methylsulfonyl)pyridin-2-yl)-1,2,3,4-tetrahydroquinolin-5-yloxy)-N,N-dimethylacetamide]	6.30 to 7.30	< 6.00	≤ 5.00
CCCOc1c(-c2nc3ccccc3o2)ccc2c1CC[C@H](C)N2C(C)=O [I-117, (S)-1-(6-(benzo[d]oxazol-2-yl)-2-methyl-5-propoxy-3,4-dihydroquinolin-1(2H)-yl)ethanone]	6.30 to 7.30	< 6.00	5.00 to 6.00
CCCOc1c(-c2cc3ccccn3n2)ccc2c1CC[C@H](C)N2C(C)=O [I-118, (S)-1-(2-methyl-5-propoxy-6-(pyrazolo[1,5-a]pyridin-2-yl)-3,4-dihydroquinolin-1(2H)-yl)ethanone]	≤ 6.30	< 6.00	5.00 to 6.00
CCCOc1c(-c2cn3ccccc3n2)ccc2c1CC[C@H](C)N2C(C)=O [I-119, (S)-1-(6-(imidazo[1,2-a]pyridin-2-yl)-2-methyl-5-propoxy-3,4-dihydroquinolin-1(2H)-yl)ethanone]	6.30 to 7.30	6.00 to 6.30	5.00 to 6.00
CCCOc1c(-c2nc3ccccc3s2)ccc2c1CC[C@H](C)N2C(C)=O [I-120, (S)-1-(6-(benzo[d]thiazol-2-yl)-2-methyl-5-propoxy-3,4-dihydroquinolin-1(2H)-yl)ethanone]	≤ 6.30	< 6.00	5.00 to 6.00
CCCOc1c(-c2nc3ccccc3[nH]2)ccc2c1CC[C@H](C)N2C(C)=O [I-121, (S)-1-(6-(1H-benzo[d]imidazol-2-yl)-2-methyl-5-propoxy-3,4-dihydroquinolin-1(2H)-yl)ethanone]	6.30 to 7.30	6.00 to 6.30	5.00 to 6.00
COC(=O)N1c2ccc(-c3cnn(C4CCNCC4)c3)c(Oc3ccc(Cl)cc3C#N)c2CC[C@@H]1C [I-132, (S)-methyl 5-(4-chloro-2-cyanophenoxy)-2-methyl-6-(1-(piperidin-4-yl)-1H-pyrazol-4-yl)-3,4-dihydroquinoline-1(2H)-carboxylate]	> 7.30	> 6.30	6.00 to 7.00
COC(=O)N1c2ccc(-c3cnn(C4CCNCC4)c3)c(Oc3ccc(F)cc3C#N)c2CC[C@@H]1C [I-133, (S)-methyl 5-(2-cyano-4-fluorophenoxy)-2-methyl-6-(1-(piperidin-4-yl)-1H-pyrazol-4-yl)-3,4-dihydroquinoline-1(2H)-carboxylate]	> 7.30	> 6.30	6.00 to 7.00
COC(=O)N1c2ccc(-c3cnn(C4CCNCC4)c3)c(Oc3ccc(C#N)cc3Cl)c2CC[C@@H]1C [I-134, (S)-methyl 5-(2-chloro-4-cyanophenoxy)-2-methyl-6-(1-(piperidin-4-yl)-1H-pyrazol-4-yl)-3,4-dihydroquinoline-1(2H)-carboxylate]	> 7.30	> 6.30	6.00 to 7.00
COC(=O)N1c2ccc(-c3cnn(C4CCNCC4)c3)c(Oc3ccc(C#N)cc3F)c2CC[C@@H]1C [I-135, (S)-methyl 5-(4-cyano-2-fluorophenoxy)-2-methyl-6-(1-(piperidin-4-yl)-1H-pyrazol-4-yl)-3,4-dihydroquinoline-1(2H)-carboxylate]	> 7.30	> 6.30	6.00 to 7.00
CC(=O)N1c2ccc(-c3cnn(C4CCNCC4)c3)c(Oc3ccccc3C#N)c2CC[C@@H]1C [I-136, (S)-2-(1-acetyl-2-methyl-6-(1-(piperidin-4-yl)-1H-pyrazol-4-yl)-1,2,3,4-tetrahydroquinolin-5-yloxy)benzonitrile]	> 7.30	> 6.30	6.00 to 7.00
COC(=O)N1c2ccc(-c3cnn(C4CCNCC4)c3)c(Oc3ccccc3C#N)c2CC[C@@H]1C [I-137, methyl (S)-5-(2-cyanophenoxy)-2-methyl-6-(1-(piperidin-4-yl)-1H-pyrazol-4-yl)-3,4-dihydroquinoline-1(2H)-carboxylate]	> 7.30	> 6.30	6.00 to 7.00
COC(=O)N1c2ccc(-c3cnn(C4CNC4)c3)c(Oc3ccccc3C#N)c2CC[C@@H]1C [I-138, (S)-methyl 6-(1-(azetidin-3-yl)-1H-pyrazol-4-yl)-5-(2-cyanophenoxy)-2-methyl-3,4-dihydroquinoline-1(2H)-carboxylate]	> 7.30	> 6.30	6.00 to 7.00
COC(=O)N1c2ccc(-c3cnn(C4CNC4)c3)c(Oc3cccc(F)c3C#N)c2CC[C@@H]1C [I-139, (S)-methyl 6-(1-(azetidin-3-yl)-1H-pyrazol-4-yl)-5-(2-cyano-3-fluorophenoxy)-2-methyl-3,4-dihydroquinoline-1(2H)-carboxylate]	> 7.30	> 6.30	6.00 to 7.00
CC(=O)N1c2ccc(-c3cnn(C4CCNCC4)c3)c(Oc3ccc(C#N)cc3)c2CC[C@@H]1C [I-140, (S)-4-(1-acetyl-2-methyl-6-(1-(piperidin-4-yl)-1H-pyrazol-4-yl)-1,2,3,4-tetrahydroquinolin-5-yloxy)benzonitrile]	> 7.30	> 6.30	6.00 to 7.00
CC(=O)N1c2ccc(-c3cnn(C4CCNCC4)c3)c(Oc3ncccc3C(F)(F)F)c2CC[C@@H]1C [I-141, (S)-1-(2-methyl-6-(1-(piperidin-4-yl)-1H-pyrazol-4-yl)-5-(3-(trifluoromethyl)pyridin-2-yloxy)-3,4-dihydroquinolin-1(2H)-yl)ethanone]	> 7.30	> 6.30	6.00 to 7.00
CC(=O)N1c2ccc(-c3cnn(C4CCNCC4)c3)c(Oc3ncccc3Cl)c2CC[C@@H]1C [I-142, (S)-1-(5-(3-chloropyridin-2-yloxy)-2-methyl-6-(1-(piperidin-4-yl)-1H-pyrazol-4-yl)-3,4-dihydroquinolin-1 (2H)-yl)ethanone]	6.30 to 7.30	> 6.30	6.00 to 7.00
CC(=O)N1c2ccc(-c3cnn(C4CCNCC4)c3)c(Oc3ncccc3C#N)c2CC[C@@H]1C [I-143, (S)-2-(1-acetyl-2-methyl-6-(1-(piperidin-4-yl)-1H-pyrazol-4-yl)-1,2,3,4-tetrahydroquinolin-5-yloxy)nicotinonitrile]	6.30 to 7.30	> 6.30	6.00 to 7.00
CC(=O)N1c2ccc(-c3cnn(C4CCNCC4)c3)c(Oc3ncc(C)cn3)c2CC[C@@H]1C [I-144, (S)-1-(2-methyl-5-(5-methylpyrimidin-2-yloxy)-6-(1-(piperidin-4-yl)-1H-pyrazol-4-yl)-3,4-dihydroquinolin-1 (2H)-yl)ethanone]	> 7.30	> 6.30	6.00 to 7.00
CC(=O)N1c2ccc(-c3cnn(C4CCNCC4)c3)c(Oc3cnccn3)c2CC[C@@H]1C [I-145, (S)-1-(2-methyl-6-(1-(piperidin-4-yl)-1H-pyrazol-4-yl)-5-(pyrazin-2-yloxy)-3,4-dihydroquinolin-1(2H)-yl)ethanone]	> 7.30	> 6.30	6.00 to 7.00
COC(=O)N1c2ccc(-c3cnn(C4CCNCC4)c3)c(Oc3ccc(C#N)cc3)c2CC[C@@H]1C [I-146, (S)-methyl 5-(4-cyanophenoxy)-2-methyl-6-(1-(piperidin-4-yl)-1H-pyrazol-4-yl)-3,4-dihydroquinoline-1(2H)-carboxylate]	6.30 to 7.30	> 6.30	6.00 to 7.00
COC(=O)N1c2ccc(-c3cnn(C4CCNCC4)c3)c(Oc3ncccc3C#N)c2CC[C@@H]1C [I-147, (S)-methyl 5-(3-cyanopyridin-2-yloxy)-2-methyl-6-(1-(piperidin-4-yl)-1H-pyrazol-4-yl)-3,4-dihydroquinoline-1(2H)-carboxylate]	6.30 to 7.30	> 6.30	5.00 to 6.00
COC(=O)N1c2ccc(-c3cnn(C4CCNCC4)c3)c(Oc3cccc(F)c3C#N)c2CC[C@@H]1C [I-148, (S)-methyl 5-(2-cyano-3-fluorophenoxy)-2-methyl-6-(1-(piperidin-4-yl)-1H-pyrazol-4-yl)-3,4-dihydroquinoline-1(2H)-carboxylate]	> 7.30	> 6.30	6.00 to 7.00
